Read-outs that look alike come from different tables or passages of the source.
Legend:
mouse model of epilepsy = settings: cited from earlier work
[1] = Suramin plasma pharmacokinetics in three-arm, randomized, double blind, placebo-controlled trial, intravenous infusion; format: in vivo, human; settings: for Plasma Concentration / AUCInterval / AUCinterval/Dose / Cmax/Dose / Cmin / AUCOverall / AUCVisit 4 / AUCVisit 5 / AUCVisit 7 / Cmin, Visit 5 / Cmin, Visit 7 / Cmin. overall / Cmax / concentration at 28 day: mean; for half-life / Cmax / concentration at 28 day: male, human, plasma; for half-life: intravenous; for concentration at 28 day: read-out: Cmin, Visit 4
Excerpt: The following Table 2 outlines the visit schedule:
A non-compartmental pharmacokinetic (PK) approach consistent with the intravenous route of administration was used to estimate PK parameters in Watson LIMS software (version 7.5). […] All concentration values were in μg/mL, and all time points were in days as provided by the bioanalytical testing facility. Nominal dose concentrations and sampling times were used. The area under the plasma concentration-time curve (AUC) estimations were calculated on profiles having at least a quantifiable post-dose and pre-dose prior to the next dosing occasion. The observed maximum plasma concentration (Cmax) and time of Cmax (Tmax) were determined directly from the data.
Pharmacokinetic parameters were estimated using a non-compartmental approach consistent with intravenous infusion route of administration.
For area under the curve (AUC) estimation, measured plasma concentration for post dose and pre dose before the next dosing event were needed. For this study, samples for pharmacokinetic analysis were collected on days 1, 28, 56, and 96.
Whenever possible, standard deviation and coefficient of variation were determined by Watson LIMS software. For analyses that were not supported by Watson (i.e. custom comparisons), Excel was used and the statistics reported as determined by excel algorithms. Note that in either case, when the number of data points was less than three, standard deviation and coefficient of variation could not be calculated.
The route of administration was intravenous infusion over a 30 minute period on visits 2, 4, and 5.

[2] = system: male children with Autism Spectrum Disorder (ASD); assay: Efficacy by Aberrant Behavior Checklist (ABC) versus suramin blood levels in the ASD trial; format: in vivo, human; settings: 10 or 20 mg/kg IV
Method: (§1) This is the first time that multiple doses were studied in patients with neurodevelopmental disorders, and where they were observed over a long term duration. Previously, only a single 20 mg/kg dose had been described in an ASD study. See, R. K. Naviaux, “Antipurinergic therapy for autism—An in-depth review”, Mitochondrion 43, pp. 1-15 (2018), available online Dec. 16, 2017.
Each study participant attended a total of 7 visits, screening period (Visit 1.14 days), Randomization visit (Visit 2 day 1), treatment follow up visits (visit 3; day 14), treatment visit (visit 4; Day 28), treatment visit (visit 5; Day 56), End of treatment visit (visit 6; Day 77) and EOS (visit 7; day 98). Window period for screening until visit 2 will be ±14 days (thus the study procedures can be performed over 14 days) and for visit 2 onwards will be ±2 days (thus the procedures can be performed over 5 days) (Visit 2 to 7).

[3] = cited from earlier work
[4] = system: male children with Autism Spectrum Disorder (ASD); assay: Adverse effects in the ASD trial; format: in vivo, human
Method: as §1
Since only predose, 1 hour post dose, and before the next dose administration samples were collected, it was not possible to determine the exact distribution and elimination curves and therefore extrapolated parameters such as AUC0-∞ and T1/2 were not determinable.

[5] = 10 mg/kg to 20 mg/kg dose range
[6] = Table 3A, 10 mg dose group, IV, children
[7] = Table 3C, 20 mg dose group, IV, children
[8] = Table 7, 10 mg/kg Dose, n = 13, IV
[9] = Table 7, 20 mg/kg Dose, n = 14, IV

O=C(NCC1(N2CCN(c3ccccc3)CC2)CCOCC1)c1cccnc1Sc1ccccc1 [JNJ-47965567, 2-(Phenylthio)-N-[[tetrahydro-4-(4-phenyl-1-piperazinyl)-2H-pyran-4-yl]methyl]-3-pyridinecarboxamide]
epileptic seizures (mouse model of epilepsy): suppress epileptic seizures

Cc1ccc(C(=O)Nc2ccc(S(=O)(=O)O)c3cc(S(=O)(=O)O)cc(S(=O)(=O)O)c23)cc1NC(=O)c1cccc(NC(=O)Nc2cccc(C(=O)Nc3cc(C(=O)Nc4ccc(S(=O)(=O)O)c5cc(S(=O)(=O)O)cc(S(=O)(=O)O)c45)ccc3C)c2)c1 [suramin, 1,3,5-Naphthalenetrisulfonic acid, 8,8′-[carbonylbis[imino-3,1-phenylenecarbonylimino(4-methyl-3,1-phenylene)carbonylimino]]bis-]
Plasma Concentration ([1]; 10 mg/kg IV, visit 2, day 1, 1 h post-infusion): 229000 ng/mL
Plasma Concentration ([1]; 10 mg/kg IV, visit 4, day 28, 1 h post-infusion): 157000 ng/mL
Plasma Concentration ([1]; 10 mg/kg IV, visit 4, day 28, pre-dose): 4310 ng/mL
Plasma Concentration ([1]; 10 mg/kg IV, visit 5, day 56, 1 h post-infusion): 164000 ng/mL
Plasma Concentration ([1]; 10 mg/kg IV, visit 5, day 56, pre-dose): 7960 ng/mL
Plasma Concentration ([1]; 10 mg/kg IV, visit 7, day 96, EOS): 7870 ng/mL
Dose proportionality of AUC0-96 [1, 5]: nearly dose proportional
Dose proportionality of Cmax [1, 5]: less than dose proportional
Plasma Concentration ([1]; 20 mg/kg IV, visit 2, day 1, 1 h post-infusion): 328000 ng/mL
Plasma Concentration ([1]; 20 mg/kg IV, visit 4, day 28, 1 h post-infusion): 327000 ng/mL
Plasma Concentration ([1]; 20 mg/kg IV, visit 4, day 28, pre-dose): 11000 ng/mL
Plasma Concentration ([1]; 20 mg/kg IV, visit 5, day 56, 1 h post-infusion): 332000 ng/mL
Plasma Concentration ([1]; 20 mg/kg IV, visit 5, day 56, pre-dose): 21100 ng/mL
Plasma Concentration ([1]; 20 mg/kg IV, visit 7, day 96, EOS): 23400 ng/mL
AUCInterval [1, 6]: 4780 µg·days/mL
AUCinterval/Dose [1, 6]: 478 µg·days/mL/mg
Cmax/Dose [1, 6]: 24.4 µg/mL/mg
Cmin [1, 6]: 4300 ng/mL
AUCInterval [1, 7]: 9510 µg·days/mL
AUCinterval/Dose [1, 7]: 475 µg·days/mL/mg
Cmax/Dose [1, 7]: 18.3 µg/mL/mg
Cmin [1, 7]: 10600 ng/mL
AUCOverall [1, 8]: 4600.0 µg·days/mL
AUCVisit 4 [1, 8]: 1195.6 µg·days/mL
AUCVisit 5 [1, 8]: 1386.7 µg·days/mL
AUCVisit 7 [1, 8]: 2017.7 µg·days/mL
AUCinterval/Dose [1, 8]: 460.0 µg·days/mL/mg
Cmax/Dose [1, 8]: 18.1 µg/mL/mg
Cmin, Visit 5 [1, 8]: 7700 ng/mL
Cmin, Visit 7 [1, 8]: 7700 ng/mL
Cmin. overall [1, 8]: 4400 ng/mL
AUCOverall [1, 9]: 10203.6 µg·days/mL
AUCVisit 4 [1, 9]: 2431.4 µg·days/mL
AUCVisit 5 [1, 9]: 3121.4 µg·days/mL
AUCVisit 7 [1, 9]: 4650.7 µg·days/mL
AUCinterval/Dose [1, 9]: 510.1 µg·days/mL/mg
Cmax/Dose [1, 9]: 18.0 µg/mL/mg
Cmin, Visit 5 [1, 9]: 21900 ng/mL
Cmin, Visit 7 [1, 9]: 24200 ng/mL
Cmin. overall [1, 9]: 10600 ng/mL
half-life ([1]; 10 mg low dose level, inferred from lack of accumulation): < 28 days
half-life ([1]; 20 mg high dose level, inferred from accumulation): > 28 days
Cmax ([1]; Table 3A, 10 mg dose group, IV, children, read-out: Cmax): 244000 ng/mL
Cmax ([1]; Table 3C, 20 mg dose group, IV, children, read-out: Cmax): 365000 ng/mL
Cmax ([1]; Table 7, 10 mg/kg Dose, n = 13, IV, read-out: Cmax, Oveall): 181000 ng/mL
concentration at 28 day [1, 8]: 4400 ng/mL
Cmax ([1]; Table 7, 20 mg/kg Dose, n = 14, IV, read-out: Cmax, Oveall): 359000 ng/mL
concentration at 28 day [1, 9]: 10900 ng/mL
change in ABC scores from baseline versus exposure [2]: A greater change in ABC scores from baseline was observed with lower exposures
correlation between blood levels and efficacy (ABC) ([2]; multiple doses): dynamic nonlinear correlation between antipurinergic blood levels and efficacy
half-life, average ([3]; average): 50 days
oral bioavailability ([3]; in vivo, po): poor oral bioavailability
adverse effects such as visible rash or vomiting ([4]; 10 mg/kg dose group): only one event
adverse effects such as visible rash or vomiting ([4]; 20 mg/kg dose group): occurred mostly in the 20 mg/kg dose group

Source: patent US20240277641A1, “METHODS FOR TREATING NERVOUS SYSTEM DISORDERS WITH […] AGENTS” (PAXMEDICA, INC., priority 2021, published 2024)
